Measured values from US11464866B2, “Pharmaceutical composition containing macromolecular drug” (BIODYNAMIC RESEARCH FOUNDATION, priority 2016, dated 2022).

Tested on: S-180 mice (tumor model)
Conditions: mouse, in vivo, 1 day
Procedure: Method: In 1 ml of saline (0.01 M phosphate, 0.15 M NaCl, pH 7.4) were dissolved 10 mg of each sample (10 mg/ml) and the predetermined amount of each test reagent shown in Table 2. Then, 0.1 ml of each obtained solution and 0.1 ml of an aqueous solution (10 mg/ml) of Evans blue were intravenously administered to S-180 mice (tumor model) The tumor size of the mice was a diameter of 5 to 7 mm. The next day, each mouse was dissected and solid tumors were taken out therefrom. Evans blue was extracted by a conventional method and the leaked Evans blue was quantified by absorption of 560 nm (see Non-Patent Document 1).

## O=[N+]([O-])OCC(CO[N+](=O)[O-])O[N+](=O)[O-] [nitroglycerin]
  enhanced effect (tumor delivery): ≥ 30%
